Consider twelve compounds from ChEMBL document CHEMBL1287733, “Implication of the disulfide bridge in trypsin inhibitor SFTI-1 in its interaction with serine proteinases” (Bioorg Med Chem, 2010).

Calls of active or inactive are those of the source. The rule behind the calls is not given here. Starred links: 1 amine or outer side, 2 acyl side, 3 side chain; linkers in the order of their positions; H or OH if unused. Non-standard residues stand in square brackets, D forms with d. Residues, ends and D or L forms follow the SMILES beside them. N(2-mercaptoethyl)Gly = O=C(CN(CCS[*:3])[*:1])[*:2]; hCys = N[C@@H](CCS)C(=O)O; Nphe = O=C(O)CNCc1ccccc1; Nlys = NCCCCNCC(=O)O

The species named for the first assay is Bos taurus. The assay is described as follows: Inhibition of bovine trypsin.
`CC[C@H](C)[C@@H]1NC(=O)[C@@H]2CCCN2C(=O)[C@@H]2CCCN2C(=O)[C@H]([C@@H](C)CC)NC(=O)[C@H](CO)NC(=O)[C@H](CCCCN)NC(=O)[C@H]([C@@H](C)O)NC(=O)[C@@H]2CSSC[C@H](NC1=O)C(=O)N[C@@H](Cc1ccccc1)C(=O)N1CCC[C@H]1C(=O)N[C@@H](CC(=O)O)C(=O)NCC(=O)N[C@@H](CCCNC(=N)N)C(=O)N2` gave a Ka of 1.1 ×10¹⁰ /M. On the same count and under the same terms, the figure for `CC[C@H](C)[C@@H]1NC(=O)[C@@H]2CCCN2C(=O)[C@@H]2CCCN2C(=O)[C@H]([C@@H](C)CC)NC(=O)[C@H](CO)NC(=O)[C@H](CCCCN)NC(=O)[C@H]([C@@H](C)O)NC(=O)[C@H](CS)NC(=O)[C@H](CCCNC(=N)N)NC(=O)CNC(=O)[C@H](CC(=O)O)NC(=O)[C@@H]2CCCN2C(=O)[C@H](Cc2ccccc2)NC(=O)[C@H](CS)NC1=O` is 9.9 ×10⁹ /M.

Turning to `CC[C@H](C)[C@@H]1NC(=O)[C@@H]2CCCN2C(=O)[C@@H]2CCCN2C(=O)[C@H]([C@@H](C)CC)NC(=O)[C@H](CO)NC(=O)[C@H](CCCCN)NC(=O)[C@H]([C@@H](C)O)NC(=O)CN(CCS)C(=O)[C@H](CCCNC(=N)N)NC(=O)CNC(=O)[C@H](CC(=O)O)NC(=O)[C@@H]2CCCN2C(=O)[C@H](Cc2ccccc2)NC(=O)CN(CCS)C1=O` (cyclo(DGR[N(2-mercaptoethyl)Gly]TKSIPPI[N(2-mercaptoethyl)Gly]FP)), the Ka result was “inactive”.

For the compound `CC[C@H](C)[C@@H]1NC(=O)[C@@H]2CCCN2C(=O)[C@@H]2CCCN2C(=O)[C@H]([C@@H](C)CC)NC(=O)[C@H](CO)NC(=O)CN(CCCCN)C(=O)[C@H]([C@@H](C)O)NC(=O)CN(CCS)C(=O)[C@H](CCCNC(=N)N)NC(=O)CNC(=O)[C@H](CC(=O)O)NC(=O)[C@@H]2CCCN2C(=O)[C@H](Cc2ccccc2)NC(=O)CN(CCS)C1=O` (cyclo(DGR[N(2-mercaptoethyl)Gly]T[Nlys]SIPPI[N(2-mercaptoethyl)Gly]FP)), the Ka entry is “inactive”.

Another assay is filed under the species Bos taurus. The assay is described as follows: Inhibition of bovine chymotrypsin.
`CC[C@H](C)[C@@H]1NC(=O)[C@@H]2CCCN2C(=O)[C@@H]2CCCN2C(=O)[C@H]([C@@H](C)CC)NC(=O)[C@H](CO)NC(=O)CN(Cc2ccccc2)C(=O)[C@H]([C@@H](C)O)NC(=O)[C@@H](C(C)(C)S)NC(=O)[C@H](CCCNC(=N)N)NC(=O)CNC(=O)[C@H](CC(=O)O)NC(=O)[C@@H]2CCCN2C(=O)[C@H](Cc2ccccc2)NC(=O)[C@@H](C(C)(C)S)NC1=O` showed a Ka of 3.11 ×10⁵ /M. Still for that read-out and setting: in the case of `CC[C@H](C)[C@@H]1NC(=O)[C@@H]2CCCN2C(=O)[C@@H]2CCCN2C(=O)[C@H]([C@@H](C)CC)NC(=O)[C@H](CO)NC(=O)CN(Cc2ccccc2)C(=O)[C@H]([C@@H](C)O)NC(=O)[C@@H](C(C)(C)S)NC(=O)[C@H](CCCNC(=N)N)NC(=O)CNC(=O)[C@H](CC(=O)O)NC(=O)[C@@H]2CCCN2C(=O)[C@H](Cc2ccccc2)NC(=O)[C@H](CS)NC1=O` it was 1.15 ×10⁵ /M. Same read-out and setting: the figure for `CC[C@H](C)[C@@H]1NC(=O)[C@@H]2CCCN2C(=O)[C@@H]2CCCN2C(=O)[C@H]([C@@H](C)CC)NC(=O)[C@H](CO)NC(=O)CN(Cc2ccccc2)C(=O)[C@H]([C@H](C)O)NC(=O)[C@H](CS)NC(=O)[C@H](CCCNC(=N)N)NC(=O)CNC(=O)[C@H](CC(=O)O)NC(=O)[C@@H]2CCCN2C(=O)[C@H](Cc2ccccc2)NC(=O)[C@H](CS)NC1=O` is 3.9 ×10⁸ /M; for `CC[C@H](C)[C@@H]1NC(=O)[C@@H]2CCCN2C(=O)[C@@H]2CCCN2C(=O)[C@H]([C@@H](C)CC)NC(=O)[C@H](CO)NC(=O)[C@H](CCCCN)NC(=O)[C@H]([C@@H](C)O)NC(=O)[C@@H]2CSSC[C@H](NC1=O)C(=O)N[C@@H](Cc1ccccc1)C(=O)N1CCC[C@H]1C(=O)N[C@@H](CC(=O)O)C(=O)NCC(=O)N[C@@H](CCCNC(=N)N)C(=O)N2` it is 5.2 ×10⁶ /M. The same measure, in the same setting: in the case of `CC[C@H](C)[C@@H]1NC(=O)[C@@H]2CCCN2C(=O)[C@@H]2CCCN2C(=O)[C@H]([C@@H](C)CC)NC(=O)[C@H](CO)NC(=O)[C@H](CCCCN)NC(=O)[C@H]([C@@H](C)O)NC(=O)[C@H](CS)NC(=O)[C@H](CCCNC(=N)N)NC(=O)CNC(=O)[C@H](CC(=O)O)NC(=O)[C@@H]2CCCN2C(=O)[C@H](Cc2ccccc2)NC(=O)[C@H](CS)NC1=O` it was 4.9 ×10⁶ /M; in that of `CC[C@H](C)[C@@H]1NC(=O)[C@@H]2CCCN2C(=O)[C@@H]2CCCN2C(=O)[C@H]([C@@H](C)CC)NC(=O)[C@H](CO)NC(=O)[C@H](Cc2ccccc2)NC(=O)[C@H]([C@@H](C)O)NC(=O)CN(CCS)C(=O)[C@H](CCCNC(=N)N)NC(=O)CNC(=O)[C@H](CC(=O)O)NC(=O)[C@@H]2CCCN2C(=O)[C@H](Cc2ccccc2)NC(=O)[C@H](CS)NC1=O` (cyclo(CFPDGR[N(2-mercaptoethyl)Gly]TFSIPPI)), “inactive”. `CC[C@H](C)[C@@H]1NC(=O)[C@@H]2CCCN2C(=O)[C@@H]2CCCN2C(=O)[C@H]([C@@H](C)CC)NC(=O)[C@H](CO)NC(=O)[C@H](Cc2ccccc2)NC(=O)[C@H]([C@@H](C)O)NC(=O)[C@H](CS)NC(=O)[C@H](CCCNC(=N)N)NC(=O)CNC(=O)[C@H](CC(=O)O)NC(=O)[C@@H]2CCCN2C(=O)[C@H](Cc2ccccc2)NC(=O)CN(CCS)C1=O` (cyclo(CTFSIPPI[N(2-mercaptoethyl)Gly]FPDGR)): the Ka came out at 4.79 ×10⁸ /M. For the compound `CC[C@H](C)[C@@H]1NC(=O)[C@@H]2CCCN2C(=O)[C@@H]2CCCN2C(=O)[C@H]([C@@H](C)CC)NC(=O)[C@H](CO)NC(=O)[C@H](Cc2ccccc2)NC(=O)[C@H]([C@@H](C)O)NC(=O)CN(CCS)C(=O)[C@H](CCCNC(=N)N)NC(=O)CNC(=O)[C@H](CC(=O)O)NC(=O)[C@@H]2CCCN2C(=O)[C@H](Cc2ccccc2)NC(=O)CN(CCS)C1=O` (cyclo(DGR[N(2-mercaptoethyl)Gly]TFSIPPI[N(2-mercaptoethyl)Gly]FP)), the Ka result was “inactive”. Still for that read-out and setting: the entry for `CC[C@H](C)[C@@H]1NC(=O)[C@@H]2CCCN2C(=O)[C@@H]2CCCN2C(=O)[C@H]([C@@H](C)CC)NC(=O)[C@H](CO)NC(=O)CN(Cc2ccccc2)C(=O)[C@H]([C@@H](C)O)NC(=O)CN(CCS)C(=O)[C@H](CCCNC(=N)N)NC(=O)CNC(=O)[C@H](CC(=O)O)NC(=O)[C@@H]2CCCN2C(=O)[C@H](Cc2ccccc2)NC(=O)CN(CCS)C1=O` (cyclo(DGR[N(2-mercaptoethyl)Gly]T[Nphe]SIPPI[N(2-mercaptoethyl)Gly]FP)) is “inactive”; for `CC[C@H](C)[C@@H]1NC(=O)[C@@H]2CCCN2C(=O)[C@@H]2CCCN2C(=O)[C@H]([C@@H](C)CC)NC(=O)[C@H](CO)NC(=O)[C@H](Cc2ccccc2)NC(=O)[C@H]([C@@H](C)O)NC(=O)[C@H](CCS)NC(=O)[C@H](CCCNC(=N)N)NC(=O)CNC(=O)[C@H](CC(=O)O)NC(=O)[C@@H]2CCCN2C(=O)[C@H](Cc2ccccc2)NC(=O)[C@H](CCS)NC1=O` (cyclo(DGR[hCys]TFSIPPI[hCys]FP)) it is 7.56 ×10⁹ /M.
